PubChem BioAssay (NCI)
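Grown in 96-well plates, cells were treated for 48 hours with each compound at five concentrations. Insufficient inhibition: endpoint recorded as highest concentration tested. At the GI50, growth is halved. TGI: concentration producing complete growth inhibition.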

Experiments:
Assay in all cases: growth of human tumour cells (NCI), 48 h
786-0 renal = tested on: 786-0 renal
A498 renal = tested on: A498 renal
A549 NSCLC = tested on: A549 NSCLC
ACHN renal = tested on: ACHN renal
BT-549 breast = tested on: BT-549 breast
CAKI-1 renal = tested on: CAKI-1 renal
CCRF-CEM leukemia = tested on: CCRF-CEM leukemia
COLO 205 colon = tested on: COLO 205 colon
DU-145 prostate = tested on: DU-145 prostate
EKVX NSCLC = tested on: EKVX NSCLC
HCC-2998 colon = tested on: HCC-2998 colon
HCT-116 colon = tested on: HCT-116 colon
HCT-15 colon = tested on: HCT-15 colon
HL-60(TB) leukemia = tested on: HL-60(TB) leukemia
HOP-62 NSCLC = tested on: HOP-62 NSCLC
HOP-92 NSCLC = tested on: HOP-92 NSCLC
HS 578T breast = tested on: HS 578T breast
HT29 colon = tested on: HT29 colon
IGROV1 ovarian = tested on: IGROV1 ovarian
K-562 leukemia = tested on: K-562 leukemia
KM12 colon = tested on: KM12 colon
LOX IMVI melanoma = tested on: LOX IMVI melanoma
M14 melanoma = tested on: M14 melanoma
MALME-3M melanoma = tested on: MALME-3M melanoma
MCF7 breast = tested on: MCF7 breast
MDA-MB-231 breast = tested on: MDA-MB-231 breast
MDA-MB-435 = tested on: MDA-MB-435
MDA-MB-468 breast = tested on: MDA-MB-468 breast
MOLT-4 leukemia = tested on: MOLT-4 leukemia
NCI-H226 lung = tested on: NCI-H226 lung
NCI-H23 lung = tested on: NCI-H23 lung
NCI-H460 lung = tested on: NCI-H460 lung
NCI-H522 lung = tested on: NCI-H522 lung
NCI/ADR-RES ovarian = tested on: NCI/ADR-RES ovarian
OVCAR-3 ovarian = tested on: OVCAR-3 ovarian
OVCAR-4 ovarian = tested on: OVCAR-4 ovarian
OVCAR-5 ovarian = tested on: OVCAR-5 ovarian
OVCAR-8 ovarian = tested on: OVCAR-8 ovarian
PC-3 prostate = tested on: PC-3 prostate
RPMI-8226 leukemia = tested on: RPMI-8226 leukemia
RXF 393 renal = tested on: RXF 393 renal
SF-268 CNS = tested on: SF-268 CNS
SF-295 CNS = tested on: SF-295 CNS
SF-539 CNS = tested on: SF-539 CNS
SK-MEL-2 melanoma = tested on: SK-MEL-2 melanoma
SK-MEL-28 melanoma = tested on: SK-MEL-28 melanoma
SK-MEL-5 melanoma = tested on: SK-MEL-5 melanoma
SK-OV-3 ovarian = tested on: SK-OV-3 ovarian
SN12C renal = tested on: SN12C renal
SNB-19 CNS = tested on: SNB-19 CNS
SNB-75 CNS = tested on: SNB-75 CNS
SR leukemia = tested on: SR leukemia
SW-620 colon = tested on: SW-620 colon
T-47D breast = tested on: T-47D breast
TK-10 renal = tested on: TK-10 renal
U251 CNS = tested on: U251 CNS
UACC-257 melanoma = tested on: UACC-257 melanoma
UACC-62 melanoma = tested on: UACC-62 melanoma
UO-31 renal = tested on: UO-31 renal

Structure (SMILES): COc1ccc(OC)c(-c2cc(-c3c[nH]c4ccccc34)nc(N)c2C#N)c1
- GI50 (786-0 renal): 2.61 µM
- TGI (786-0 renal): 9.13 µM
- GI50 (A498 renal): 8.86 µM
- TGI (A498 renal): 21.9 µM
- GI50 (A549 NSCLC): 3.74 µM
- TGI (A549 NSCLC): 27.5 µM
- GI50 (ACHN renal): 4.92 µM
- TGI (ACHN renal): 22.7 µM
- GI50 (BT-549 breast): 1.96 µM
- TGI (BT-549 breast): 12.3 µM
- GI50 (CAKI-1 renal): 1.51 µM
- TGI (CAKI-1 renal): 20.6 µM
- GI50 (CCRF-CEM leukemia): 2.4 µM
- TGI (CCRF-CEM leukemia): 28.8 µM
- GI50 (COLO 205 colon): 2.81 µM
- TGI (COLO 205 colon): 10.7 µM
- GI50 (DU-145 prostate): 8.2 µM
- TGI (DU-145 prostate): 27.5 µM
- GI50 (EKVX NSCLC): 1.57 µM
- TGI (EKVX NSCLC): 16.4 µM
- GI50 (HCC-2998 colon): 2.98 µM
- TGI (HCC-2998 colon): 13.9 µM
- GI50 (HCT-116 colon): 2.42 µM
- TGI (HCT-116 colon): 13.2 µM
- GI50 (HCT-15 colon): 0.903 µM
- TGI (HCT-15 colon): 13.4 µM
- GI50 (HL-60(TB) leukemia): 2.42 µM
- TGI (HL-60(TB) leukemia): 25.4 µM
- GI50 (HOP-62 NSCLC): 2.88 µM
- TGI (HOP-62 NSCLC): 16.2 µM
- GI50 (HOP-92 NSCLC): 1.3 µM
- TGI (HOP-92 NSCLC): 4.38 µM
- GI50 (HS 578T breast): 2.17 µM
- TGI (HS 578T breast): 8.13 µM
- GI50 (HT29 colon): 2.74 µM
- TGI (HT29 colon): 12.3 µM
- GI50 (IGROV1 ovarian): 5.59 µM
- TGI (IGROV1 ovarian): 23.1 µM
- GI50 (K-562 leukemia): 0.881 µM
- TGI (K-562 leukemia): 82.3 µM
- GI50 (KM12 colon): 2.71 µM
- TGI (KM12 colon): 13.6 µM
- GI50 (LOX IMVI melanoma): 2.95 µM
- TGI (LOX IMVI melanoma): 12.8 µM
- GI50 (M14 melanoma): 1.6 µM
- TGI (M14 melanoma): 11.6 µM
- GI50 (MALME-3M melanoma): 3.25 µM
- TGI (MALME-3M melanoma): 16.7 µM
- GI50 (MCF7 breast): 0.135 µM
- TGI (MCF7 breast): 12.5 µM
- GI50 (MDA-MB-231 breast): 2.06 µM
- TGI (MDA-MB-231 breast): 12.6 µM
- GI50 (MDA-MB-435): 0.39 µM
- TGI (MDA-MB-435): 1.86 µM
- GI50 (MDA-MB-468 breast): 0.0659 µM
- TGI (MDA-MB-468 breast): 0.369 µM
- GI50 (MOLT-4 leukemia): 3.84 µM
- TGI (MOLT-4 leukemia): 27 µM
- GI50 (NCI-H226 lung): 5.81 µM
- TGI (NCI-H226 lung): 20.5 µM
- GI50 (NCI-H23 lung): 2.82 µM
- TGI (NCI-H23 lung): 15.2 µM
- GI50 (NCI-H460 lung): 1.58 µM
- TGI (NCI-H460 lung): 13.2 µM
- GI50 (NCI-H522 lung): 0.736 µM
- TGI (NCI-H522 lung): 7.28 µM
- GI50 (NCI/ADR-RES ovarian): 1.22 µM
- TGI (NCI/ADR-RES ovarian): 5.02 µM
- GI50 (OVCAR-3 ovarian): 2.94 µM
- TGI (OVCAR-3 ovarian): 14.2 µM
- GI50 (OVCAR-4 ovarian): 5.42 µM
- TGI (OVCAR-4 ovarian): 25.3 µM
- GI50 (OVCAR-5 ovarian): 5.94 µM
- TGI (OVCAR-5 ovarian): 21.8 µM
- GI50 (OVCAR-8 ovarian): 4.94 µM
- TGI (OVCAR-8 ovarian): 18.2 µM
- GI50 (PC-3 prostate): 1.93 µM
- TGI (PC-3 prostate): 15.5 µM
- GI50 (RPMI-8226 leukemia): 1.95 µM
- TGI (RPMI-8226 leukemia): > 100 µM
- GI50 (RXF 393 renal): 1.77 µM
- TGI (RXF 393 renal): 10.4 µM
- GI50 (SF-268 CNS): 3.63 µM
- TGI (SF-268 CNS): 19 µM
- GI50 (SF-295 CNS): 3.43 µM
- TGI (SF-295 CNS): 13 µM
- GI50 (SF-539 CNS): 2.9 µM
- TGI (SF-539 CNS): 11.7 µM
- GI50 (SK-MEL-2 melanoma): 2.39 µM
- TGI (SK-MEL-2 melanoma): 6.58 µM
- GI50 (SK-MEL-28 melanoma): 3.46 µM
- TGI (SK-MEL-28 melanoma): 17.8 µM
- GI50 (SK-MEL-5 melanoma): 0.804 µM
- TGI (SK-MEL-5 melanoma): 4.18 µM
- GI50 (SK-OV-3 ovarian): 3.63 µM
- TGI (SK-OV-3 ovarian): 18 µM
- GI50 (SN12C renal): 5.06 µM
- TGI (SN12C renal): 17.7 µM
- GI50 (SNB-19 CNS): 5.47 µM
- TGI (SNB-19 CNS): 19.3 µM
- GI50 (SNB-75 CNS): 1.3 µM
- TGI (SNB-75 CNS): 5.14 µM
- GI50 (SR leukemia): 0.539 µM
- TGI (SR leukemia): 21.2 µM
- GI50 (SW-620 colon): 2.9 µM
- TGI (SW-620 colon): 15.6 µM
- GI50 (T-47D breast): 2.18 µM
- TGI (T-47D breast): 12.6 µM
- GI50 (TK-10 renal): 11.1 µM
- TGI (TK-10 renal): 33.7 µM
- GI50 (U251 CNS): 3.2 µM
- TGI (U251 CNS): 13.8 µM
- GI50 (UACC-257 melanoma): 9.47 µM
- TGI (UACC-257 melanoma): 21.5 µM
- GI50 (UACC-62 melanoma): 2.67 µM
- TGI (UACC-62 melanoma): 13.5 µM
- GI50 (UO-31 renal): 3.9 µM
- TGI (UO-31 renal): 18.4 µM
